Assay results taken from PMC12646587, “Advanced cardiotoxicity profiling using field potential imaging with UHD-CMOS-MEA in human iPSC-derived cardiomyocytes” (Toxicological Sciences, 2025).

Key:
[1] = test system: hiPSC-CMs; assay: Conventional MEA recording (16-electrode Axion Maestro), acute exposure; format: cell-based, human; settings: acute
Procedure: To enable comparison with the UHD-CMOS-MEA recordings, conventional extracellular field potential recordings were performed using 16-electrode MEA plates on a commercially available MEA system (Axion Maestro, Axion Biosystems), in accordance with the general principles of the CiPA initiative. hiPSC-CMs were cultured and maintained on the MEA plates under spontaneous beating conditions at 37 °C. Recordings were conducted after 10 to 14 DIV, and data acquisition and beat detection were performed using the built-in algorithms of the AxIS software (Axion Biosystems), without the use of external pacing. […] Each compound was applied under acute exposure conditions, and field potential recordings were obtained for 30 min following drug administration.
To evaluate the measurement capabilities of a conventional MEA system, the same set of 7 compounds was tested using the 16-electrode Axion Maestro platform.

[2] = test system: IKs; design: method as in Davies et al. 1996; settings: ref Davies et al. 1996; cited from earlier work
[3] = test system: human iPSC-derived cardiomyocytes; assay: PCA of beat parameters: cardiotoxicity risk and mechanism classification; format: cell-based
Procedure: Each parameter set was evaluated for its ability to separate cardiotoxic and non-cardiotoxic compounds while maintaining minimal variance among negative controls. […] To assess cardiotoxicity, PCA scores of test compounds were plotted in the PC space, and their positions were compared with the SD-defined zones of the negative control group. Risk levels were classified as follows: Low risk (within 1 SD), medium risk (between 1 and 2 SD), and high risk (beyond 2 SD). Dose-dependent cardiotoxicity potential was estimated based on displacement from the negative control cluster.
To establish a risk classification framework, the standard deviation (SD) range of negative control compounds in PCA space was used to define 3 zones: Within the SD range (low risk), between 1 and 2 SD (medium risk), and beyond 2 SD (high risk) (Fig. 6B). Risk levels derived from PCA distribution were compared with IC50 and Cmax values reported for each compound and associated ion channels (Table 5).

[4] = test system: CaV; settings: ref Yao and Tseng 1997; cited from earlier work
[5] = test system: cardiomyocytes; settings: FPDc10 (10% prolongation of FPDc); ref Nozaki et al. 2017; cited from earlier work
[6] = ref Lee et al. 2025; cited from earlier work
[7] = test system: cardiomyocytes; settings: CTD90 ↑; ref Lu et al. 2019; cited from earlier work
[8] = test system: hERG; settings: read-out: IC50 hERG; ref Busch et al. 1998; cited from earlier work
[9] = test system: NaV; settings: ref Yao and Tseng 1997; cited from earlier work
[10] = test system: human iPSC-derived cardiomyocytes; assay: Field potential imaging (FPI) with UHD-CMOS-MEA, acute drug treatment; format: cell-based
Procedure: Cryopreserved iCell Cardiomyocytes (FUJIFILM Cellular Dynamics, Inc.) were handled according to the supplier’s instructions. Cells were thawed in a 37 °C water bath for approximately 3 min and resuspended in iCell Thawing Medium to prepare a cell suspension at a final concentration of 1 × 10^7 cells/ml. A total of 10 µl of the cell suspension (100,000 cells per chip) was seeded directly onto the fibronectin-coated electrode area of each chip. Chips were incubated at 37 °C for 1 h to allow cell attachment, after which 1 ml of maintenance medium was gently added. […] Thereafter, medium exchanges were performed twice weekly by replacing half the medium volume.
Compounds were dissolved in culture medium containing 0.1% DMSO and administered cumulatively at increasing concentrations. Drug solutions were applied directly to the culture wells, and measurements were initiated 30 min after administration. […] All recordings were performed under spontaneous beating conditions, with no external pacing applied.
(§1) Recordings were performed at a sampling rate of 2 kHz, with a 2-min recording duration per condition. Data acquisition was controlled via proprietary software (Sony Semiconductor Solutions), and all raw signals were stored for offline analysis. All experiments were conducted in a humidified environment at 37 °C with 5% CO2, ensuring physiological conditions during both drug exposure and recording.
Spikes from hiPSC-derived cardiomyocytes were initially detected at each electrode using a voltage threshold of ±100 µV via BinViewer software (SCREEN Holdings Co., Ltd, Japan). The resulting spike data were then processed using a custom MATLAB (MathWorks, Natick, MA) script to perform beat detection. Firing count histograms were generated using a bin size of 0.5 ms, and peak detection within these histograms identified the timing and propagation duration of beats across the electrode array. For each electrode, the maximum spike amplitude and its corresponding peak timing were calculated to generate heat maps of field potential amplitude and activation timing. […]

[11] = test system: rat cardiomyocytes; settings: ref Sag et al. 2011, Ikeda et al. 2019; cited from earlier work
[12] = test system: human iPSC-derived cardiomyocytes; assay: FPI with UHD-CMOS-MEA, chronic exposure up to 96 h; format: cell-based
Procedure: as §1
Spikes from hiPSC-derived cardiomyocytes were initially detected at each electrode using a voltage threshold of ±100 µV via BinViewer software (SCREEN Holdings Co., Ltd, Japan). The resulting spike data were then processed using a custom MATLAB (MathWorks, Natick, MA) script to perform beat detection. Firing count histograms were generated using a bin size of 0.5 ms, and peak detection within these histograms identified the timing and propagation duration of beats across the electrode array. For each electrode, the maximum spike amplitude and its corresponding peak timing were calculated to generate heat maps of field potential amplitude and activation timing.
(§2) For mechanism-of-action classification and the cardiotoxicity assessment of doxorubicin, a one-way multivariate analysis of variance (MANOVA) was employed, using principal component (PC)1 and PC2 scores as dependent variables to evaluate significant differences between drug mechanism groups. Statistical significance was determined at P < 0.05.
To validate the chronic cardiotoxicity assessment using CMOS-MEA measurements, FPI was performed following long-term exposure to doxorubicin.

[13] = test system: monolayer hiPSC-CMs; settings: ref Maddah et al. 2020; cited from earlier work
[14] = test system: hiPSC-CMs; assay: Conventional MEA, chronic exposure; format: cell-based, human; settings: 0.1 μM
Procedure: Furthermore, a direct comparison was conducted between the UHD-CMOS-MEA and conventional MEA systems under chronic exposure to 0.1 μM doxorubicin.

[15] = test system: mouse cardiomyocytes; design: method as in Lin et al. 2024; settings: ref Lin et al. 2024; cited from earlier work
[16] = test system: human iPSC-derived cardiomyocytes; assay: PCA and MANOVA of beat parameters after chronic exposure; format: cell-based; settings: 0.1 µM, relative to all DMSO time points
Procedure: as §2
PCA was conducted to integrate multiple parameter changes into a comprehensive index of cardiotoxicity. The PCA included 6 selected parameters: IBI, Amplitude, Amplitude STV, Area, Velocity, and Velocity STV (Table 7). The first 2 PCs accounted for a cumulative contribution of 69.4%. […] For statistical analysis of cardiotoxicity across time points, PCA plots were categorized into 15 groups based on concentration and exposure duration. MANOVA was performed to compare each group against the DMSO 0.5 h reference (Table 8). No significant differences were detected among DMSO time points.

[17] = test system: Engineered heart tissues derived from human iPSCs; design: method as in Arefin et al. 2023; settings: ref Arefin et al. 2023, cited from earlier work
[18] = acute, statistically significant change vs before
[19] = 0.1 μM, prolonged exposure (48 h)

CN1CCN(CCCCN2C(=O)CN(/N=C/c3ccc(-c4ccc(Cl)cc4)o3)C2=O)CC1 [Azimilide]
IBI [1]: prolongation
beat frequency [1]: consistent reductions
field potential (spike) amplitude [1]: decreasing trend
magnitude of change in propagation area [1]: less than 5%
propagation area [1]: statistically significant reduction
IC50 [2]: 700 nM
FPI PCA (concentration at which changes were detected) [3]: 1 µM
IC50 [4]: 17.8 µM
MEA assay [5]: 0.129 ([Nozaki et al. 2017]) (FPDc10) µM
Cmax Free [6]: 0.07 ([Lee et al. 2025]) μM
HCA assay [7]: 1.0 ([Lu et al. 2019]) (CTD90 ↑) µM
IC50 [8]: 5.2 µM
IC50 [9]: 19 µM
IBI (interbeat interval) [10, 18]: increased and ↑
IBI STV [10, 18]: significantly elevated and ↑
BR (beat rate) ([10]; acute, statistically significant change vs before, arrows = direction, – = none): decreased and ↓
FPI (concentration at which changes were detected) ([10]; changed parameters in brackets in each cell): 1 (BR, IBI, IBI STV) μM

COc1cccc2c1C(=O)c1c(O)c3c(c(O)c1C2=O)C[C@@](O)(C(=O)CO)C[C@@H]3O[C@H]1C[C@H](N)[C@H](O)[C@H](C)O1 [Doxorubicin]
concentrations giving Ca^2+ handling abnormalities, apoptosis and contractile dysfunction [11]: only at micromolar concentrations
beat area ([12]; 0.03 µM, after 24 h): significant decreases
peak potential ([12]; 0.03 µM, after 24 h): significant decreases
beat rate ([12]; 0.03 µM, chronic exposure): did not significantly alter
changes in conventional parameters such as beat rate and IBI ([12]; 0.1 µM): evident only after 72 h
exposure time at which a decline in conduction velocity was detected ([12]; 0.1 μM, CMOS-MEA): 24 h
beat area ([12]; 0.1 µM, beginning at 48 h): reductions
peak potential ([12]; 0.1 µM, beginning at 48 h): reductions
conduction velocity [12, 19]: decrease
temporal variability metrics (CV and STV) [12, 19]: increase
STV of peak potential ([12]; 0.1 µM, within 0.5 h): decreased
concentration at which cardiotoxicity was detected ([12]; within 24 h, UHD-CMOS-MEA): 0.03 µM
concentration at which structural changes were detected [13]: exceeding 0.3 μM
exposure time at which a reduction in spike amplitude began to be detected [14]: 48 h
concentration giving impaired Ca^2+ handling and reduced contractility [15]: 1 µM
MANOVA of PCA groups vs DMSO [16]: significant differences were observed after 24 h
effect on contractile force ([17]; 125 or 500 nM): no observable effects
concentration giving reduced contractile force ([17]; after 48 h of exposure): 1 µM
